Data: patent publication US20250177381A1 (SHANGHAI YONSUN BIOTECHNOLOGY CO., LTD., priority 2022, published 2025)
Values after ≈ are worked out from the molar mass of the structure shown. Where a name gives a salt, the structure may show the parent alone. Read-outs that look alike come from different tables or passages of the source. One block for each molecule: values may come before it.

Assays:
Type in all cases: physicochemical
[1] = Solubility in media with different pH values; conditions: shaken 24 h; for Solubility pH 3 / Solubility pH 4 / Solubility pH 5 / Solubility pH 6: acetate buffer; for Solubility pH 3 / Solubility pH 4 / Solubility pH 5 / Solubility pH 6 / Solubility pH 7 / Solubility pH 7.4 / Solubility pH 8 / Solubility pH 9 / Solubility Water: 37° C.; for Solubility pH 7 / Solubility pH 7.4 / Solubility pH 8 / Solubility pH 9 / solubility at 24 h: phosphate buffer; for solubility at 24 h: 37 °C, thermodynamic from solid
Protocol: The mixtures were shaken at 37° C. for 24 h and filtered through a 0.45 μm aqueous-phase filter membranes. The filtrates were collected for solubility determination by high performance liquid chromatography. pH 3, pH 4, pH5 and pH 6 represent acetate buffer solutions, and pH 7, pH 7.4, pH 8 and pH 9 represent phosphate buffer solutions.

[2] = Hydrochloride dissociation study (XRPD of residues); conditions: aqueous media of pH 6, pH 7, pH 7.4, pH 8, pH 9; shaken at 37° C. for 4 h
Protocol: The mixtures were shaken at 37° C. for 4 h and centrifuged.

[3] = Crystal form stability of solid salt forms (XRPD); conditions: 60° C., Day 10, listed as crystal form A of cariprazine mono-1-hydroxy-2-naphthoate dihydrate
Protocol: (4) The XRPD measurements were conducted on a Bruker model D8 Advance X-ray powder diffractometer using a round zero background single crystal silicon sample stage. CuKα rays were used as a light source in the test, and the scanning parameters are as follows: voltage: 40 kv; current: 40 mA; scanning range: 3°-45°; scanning step size: 0.02°; scanning mode: continuous scanning.

[4] = listed as Amorphous cariprazine embonate (Example 7)
[5] = listed as Crystal form A of cariprazine bis-1-hydroxy-2-naphthoate hydrate (Example 5), hydrate
[6] = listed as Crystal form A of cariprazine mono-1-hydroxy-2-naphthoate dihydrate (Example 1), dihydrate

Compound: CN(C)C(=O)NC1CCC(CCN2CCN(c3cccc(Cl)c3Cl)CC2)CC1 (centres unmarked) [Amorphous cariprazine embonate, cariprazine embonate]
Solubility pH 3 [1, 4]: 151.2 μg/mL
Solubility pH 4 [1, 4]: 19.1 μg/mL
Solubility pH 5 [1, 4]: 17.7 μg/mL
Solubility pH 6 [1, 4]: 19.0 μg/mL
Solubility pH 7 [1, 4]: 18.8 μg/mL
Solubility pH 7.4 [1, 4]: 9.9 μg/mL
Solubility pH 8 [1, 4]: 4.6 μg/mL
Solubility pH 9 [1, 4]: 4.2 μg/mL
Solubility Water [1, 4]: 10.4 µg/mL (≈ 24.3 µM)

Compound: CN(C)C(=O)NC1CCC(CCN2CCN(c3cccc(Cl)c3Cl)CC2)CC1 (centres unmarked) [Cariprazine (commercially available), Cariprazine, reference compound]
Solubility pH 8 [1]: 0.4 μg/mL
Solubility Water [1]: 179.94 µg/mL (≈ 421 µM)

Compound: CN(C)C(=O)NC1CCC(CCN2CCN(c3cccc(Cl)c3Cl)CC2)CC1 (centres unmarked) [Crystal form C of cariprazine mono-1-hydroxy-2-naphthoate (E]
Solubility pH 3 [1]: 102.65 μg/mL
Solubility pH 4 [1]: 82.64 μg/mL
Solubility pH 5 [1]: 81.47 μg/mL
Solubility pH 6 [1]: 36.38 μg/mL
Solubility pH 7 [1]: 4.79 μg/mL
Solubility pH 7.4 [1]: 1.53 μg/mL
Solubility pH 8 [1]: 0.51 μg/mL
Solubility pH 9 [1]: 0.31 μg/mL
Solubility Water [1]: 65.28 µg/mL (≈ 153 µM)

Second part, led by results:

Solubility pH 3 [1, 5]: 36.75 μg/mL
Solubility pH 4 [1, 5]: 65.87 μg/mL
Solubility pH 5 [1, 5]: 20.69 μg/mL
Solubility pH 6 [1, 5]: 15.24 μg/mL
Solubility pH 7 [1, 5]: 6.13 μg/mL
Solubility pH 7.4 [1, 5]: 3.00 μg/mL
Solubility pH 8 [1, 5]: 1.14 μg/mL
Solubility pH 9 [1, 5]: 0.94 μg/mL
Solubility Water [1, 5]: 55.20 µg/mL
Compound: CN(C)C(=O)NC1CCC(CCN2CCN(c3cccc(Cl)c3Cl)CC2)CC1 (centres unmarked) [cariprazine bis-1-hydroxy-2-naphthoate hydrate]

Solubility pH 3 [1]: 12302.45 μg/mL
Solubility pH 5 [1]: 1081.35 μg/mL
solubility at 24 h ([1]; pH 7, aqueous buffer, read-out: Solubility pH 7): 9.41 µg/mL
solubility at 24 h ([1]; pH 7.4, aqueous buffer, read-out: Solubility pH 7.4): 2.82 µg/mL
solubility at 24 h ([1]; pH 8, aqueous buffer, read-out: Solubility pH 8): 0.91 µg/mL
solubility at 24 h ([1]; pH 9, aqueous buffer, read-out: Solubility pH 9): 0.35 µg/mL
Solubility Water [1]: 10935.14 µg/mL
Dissociation in aqueous media (XRPD of residue) [2]: dissociated into cariprazine free base
Compound: CN(C)C(=O)N[C@H]1CC[C@H](CCN2CCN(c3cccc(Cl)c3Cl)CC2)CC1 [cariprazine hydrochloride, reference compound]

Solubility pH 3 [1, 6]: 166.74 μg/mL
Solubility pH 4 [1, 6]: 72.47 μg/mL
Solubility pH 5 [1, 6]: 72.69 μg/mL
Solubility pH 6 [1, 6]: 41.95 μg/mL
Solubility pH 7 [1, 6]: 5.02 μg/mL
Solubility pH 7.4 [1, 6]: 1.51 μg/mL
Solubility pH 8 [1, 6]: 0.62 μg/mL
Solubility pH 9 [1, 6]: 0.45 μg/mL
Solubility Water [1, 6]: 60.01 µg/mL
Compound: CN(C)C(=O)NC1CCC(CCN2CCN(c3cccc(Cl)c3Cl)CC2)CC1 (centres unmarked) [cariprazine mono-1-hydroxy-2-naphthoate dihydrate]
Crystal form results, High temperature [3]: change into the crystal form C of cariprazine mono-1-hydroxy-2-naphthoate
